Test system: Madin-Darby Canine Kidney (MDCK) cells
Experiment: in vitro transepithelial permeability assay (fluorescein, Tchao) for eye irritation potential
Conditions: MDCK monolayer, 30 minutes at 37° C., Na-fluorescein permeability; SDS=100% response; less than 20% considered non-irritating
From the text: The Tchao technique is described as a method of determining potential eye irritation of a substance by correlating damage to a mono-layer of Madin-Darby Canine Kidney (MDCK) cells with damage to corneal epithelial cells. The amount of fluorescein passing through the cell mono-layer is a function of permeability of the cell mono-layer. Higher cell mono-layer permeability indicates greater damage to the cell junctions from application of a test solution thereto, whereas lower cell mono-layer permeability indicates less damage to the cell junctions from application of the test solution. […]
Test: Each insert is rinsed with Hanks Balanced Salt Solution (HBSS) 3×1 ml using a 10 ml syringe without needle. […] After incubation at room temperature for 30 minutes, the inserts are sequentially removed from the wells, and the amount of Na-fluorescein in each of the wells is measured in a CytoFluor 2300, using 540 nm excitation and 590 nm emission. […] It has been determined that the assay can measure the effect of 50 μg/ml SDS, and the effect on the permeability of the monolayer is linearly proportional to the concentrations of SDS from 50-250 μg/ml. Fluorescence units (arbitrary) of each test solution is plotted against test solutions.
Interpretation of results: The results are expressed as % of SDS response, and comparisons with the HBSS response. […]

CCCCCCCCCCCCOS(=O)(=O)[O-].[Na+] [SDS, sodium dodecyl sulfate]
RESPONSE (percentage of SDS response): 100%
